This is an account of results in patent US20060281791A1, “Methods of increasing proliferation of adult mammalian cardiomyocytes through p38 map kinase inhibition” (CHILDREN'S MEDICAL CENTER CORPORATION, priority 2005, published 2006).

The test system of data set [1] is neonatal (P2) cardiomyocytes. Kind of data set: Induction of DNA synthesis (BrdU incorporation) in neonatal cardiomyocytes. Format: cell-based, rat. As to conditions: BrdU labeling period 24 to 72 hours; harvested after 72 hours; optimal concentration of stimulus. The procedure:
Animal experiments were performed in accordance with guidelines of Children's Hospital, Boston and UCLA. Ventricular cardiomyocytes from fetal (E19), 2-day-old (P2) and adult (250-350 g) Wistar rats (Charles River) were isolated as described with minor modifications (Engel et al. 1999; Engel et al. 2003). After digestion of fetal or neonatal hearts (0.14 mg/ml collagenase II (Invitrogen), 0.55 mg/ml pancreatin (Sigma)) cells were cultured in DMEM/F12 (GIBCO) containing 3 mM Na-pyruvate, 0.2% BSA, 0.1 mM ascorbic acid (Sigma), 0.5% Insulin-Transferrin-Selenium (100×), penicillin (100 U/ml), streptomycin (100 μg/ml), and 2 mM L-glutamine (GIBCO). Adult cardiomyocytes were cultured for 1 day in standard medium (DMEM, 25 mM Hepes, 5 mM taurine, 5 mM creatine, 2 mM L-carnitine (Sigma), 20 U/ml insulin (GIBCO), 0.2% BSA, penicillin (100 U/ml), and streptomycin (100 μg/ml)). Cells were stimulated in culture medium without BSA containing 2 mM L-glutamine. Neonatal and adult cardiomyocytes were initially cultured for 48 h in the presence of 20 μM cytosine β-D-arabinofuranoside (araC, Sigma) and 5% horse serum before stimulation to prevent proliferation of non-myocytes. Adult cardiomyocytes were incubated another 3 days with araC during stimulation. Neonatal cardiomyocytes were stimulated every day with growth factors for BrdU and H3P analyses (FGF1 and NRG-1-1β at 50 ng/ml, IL-1β at 100 ng/ml, R&D Systems, all diluted in 0.1% BSA/PBS). SB203580 and LY294002 (Calbiochem) was added every day. Adult cardiomyocytes were stimulated with fresh medium and SB203580 every 3 days.
Staining was performed as described (Supplemental Table S3) (Engel et al. 1999; Engel et al. 2003). Immune complexes were detected with ALEXA 350, ALEXA 488 or ALEXA 594-conjugated secondary antibodies (1:200, Molecular Probes). DNA was visualised with DAPI (4′,6′-diamidino-2-phenylindole, 0.5 μg/ml, Sigma). For BrdU, cells were cultured in 30 μM BrdU, incubated after permeabilization for 90 min in 2N HCl/1% triton X-100 and washed 3 times in PBS.
Eighteen to 40 hearts of 3 different litters were used for quantitative analyses of maximal areas. For immunofluorescence analyses 1,500 fetal or neonatal cardiomyocytes were counted. For adult cardiomyocyte analyses in vitro the following number of cells were counted: 500-2,000 for BrdU or Ki67, 9,000-25,000 for H3P, and 12,000-45,000 for aurora B. For in vivo MKK3bE and p38α knockout experiments 2 different litters were used. We counted 1,500-2,000 cells in each apex, left and right ventricle per heart. For adult experiments we analyzed 2 p38α^Δ/Δ and 2 p38^lox/lox hearts (24 sections each). Statistical significance was determined using Student's t test.
Several growth factors have a limited capacity to induce DNA synthesis in neonatal cardiomyocytes, including FGF1 (Pasumarthi and Field 2002). We screened 45 extracellular factors at two different concentrations for their ability to induce BrdU incorporation in neonatal (P2) cardiomyocytes. […] We confirmed previous studies showing that FGF1, IL-1β, and NRG-1-β1 are potent growth factors for neonatal cardiomyocytes (Supplemental Table S2) (Pasumarthi and Field 2002 Circ Res 90: 1044-54).
Inhibition of p38 activity by SB203580 increased BrdU incorporation 2.8-fold in neonatal cardiomyocytes stimulated with FGF1 (p<0.01). Similar results were obtained after stimulation with IL-1β and NRG-1-β1. Thus, inhibition of p38 activity augments growth factor-mediated DNA synthesis in neonatal cardiomyocytes.
In general terms: Incorporation of labelled thymidine or its analogues reports DNA synthesis.

A further data set relates to p38 MAP kinase. Particulars: cited from earlier work.
Data set [2] has as its system myocardial infarction in adult rats. Kind of data set: Fractional shortening (echocardiography) after myocardial infarction. Format: in vivo, rat. Here is the method: The p38 inhibitors were tested for in vivo effect following myocardial infarct. For the evaluation of left ventricular function, transthoracic echocardiogram can be performed on the rats after myocardial infarction 1 day or 14 days right. Rats can be anesthetized with 4-5% isoflurane in an induction chamber. The chest can be shaved, and the rats can be placed in dorsal decubitus position and intubated for continuous ventilation. 1-2% isoflurane can be continuously supplied via a mask. 3 electrodes can be adhered to their paws to record the electrocardiographic tracing simultaneously with the cardiac image identifying the phase of a cardiac cycle.
Echocardiograms can be performed with a commercially available echocardiography system equipped with 7.5 MHz phased-array transducer (Philips-Hewlett-Packard). The transducer can be positioned on the left anterior side of the chest. Longitudinal images of the heart can be obtained, including the left ventricle, atrium, the mitral valve and the aorta, followed by the cross-sectional images from the plane of the base to the left ventricular apical region. M-mode tracings can be obtained at the level below the tip of the mitral valve leaflets at the level of the papillary muscles. Fractional shorting (FS) can be calculated as a measure of systolic function, according to the M-mode tracing from the cross-sectional view: maximal LV end-diastolic diameter (at the time of maximal cavity dimension), minimal LV end-systolic diameter (at the time of maximum anterior motion of the posterior wall), FS (%)={(LVEDD−LVESD)/LVEDD}×100.
To determine whether p38 inhibition/FGF1 stimulation can induce cardiomyocyte proliferation in vivo and whether it has a positive effect on cardiac function after cardiac injury we created myocardial infarctions (MI) in adult rats (250 g) by coronary artery ligation. The p38 inhibitor SB203580 HCl or its vehicle, saline, were injected intraperitoneal every three days for the first month of the study. FGF1 or its carrier BSA was injected mixed with self-assembling peptides once into the infarct border zone immediately after coronary artery ligation. We injecting a total of 80 μl of 400 ng/ml FGF1, given at 3 different injection sites, into 400 mg of infarcted myocardium estimated to deliver a FGF 1 concentration to the cardiomyocytes of approximately 50 to 100 ng/ml. Animals were analyzed 24 hours, 2 weeks, and 3 month after surgery. We performed two blinded and randomized studies using 62 rats for the 2 week and 61 rats for the 3 month experiment, with at least 10 animals in each experimental group. Animals were treated with saline plus BSA (control), SB203580 HCl plus BSA (p38i), saline plus FGF1 (FGF1), or SB203580 HCl plus FGF1 (p38i/FGF1).
Animal experiments were performed in accordance with guidelines of Children's Hospital in Boston and were approved by the Harvard Medical School Standing Committee on Animals. Myocardial infarction (MI) was produced in ˜250 gm male Sprague-Dawley rats (Charles River and Harlan) as described previously (Hsieh et al., 2006). Briefly, rats were anesthetized by pentobarbital and, following tracheal intubation, the hearts were exposed via left thoracotomy. The left coronary artery was identified after pericardiotomy and was ligated by suturing with 6-0 prolene at the location ˜3mm below the left atrial appendix. For the sham operation, suturing was performed without ligation. […]

For data set [3] the following is noted: cited from earlier work.
The next data set has as its system ERK. Particulars: cited from earlier work.
Another data set has as its system JNK. Particulars: cited from earlier work.
For data set [4], the system named is LPS-stimulated human peripheral blood monocytes. As to conditions: cited from earlier work.

For the molecule `CNC[C@H](O)c1cccc(O)c1` [PE], the “% of BrdU positive neonatal cardiomyoctes” value in data set [1] amounted to 23.7 ± 3.1%.

On to `CCc1nc(-c2ccc(OC)cc2)[nH]c1-c1ccncc1` [SB202474], for which the “p38 MAP kinase inhibition (in words)” value in the data set with p38 MAP kinase is “inactive”.

For `C[S+]([O-])c1ccc(-c2nc(-c3ccc(F)cc3)c(-c3ccncc3)[nH]2)cc1.Cl` (stereo not shown) [SB203580 HCl], the “improvement of fractional shortening” value in data set [2] (3 month after infarction) and in data set [2] (day 14 after infarction) was “maintained” in each case. In data set [3], the water solubility entry is recorded as “water insoluble”.

With `COc1nccc(-c2c(-c3ccc(F)cc3)ncn2[C@H]2CC[C@H](O)CC2)n1` [SB239063], the “selectivity over ERK” value in the data set with ERK was more than 200 fold. Besides, the “selectivity over JNK” value in the data set on JNK was more than 200 fold. Also, the “p38 MAP kinase inhibition (in words)” value in the data set on p38 MAP kinase was “potent”. The “IL-1 and TNF-β production” value in data set [4] is recorded as “inhibits”.

Regarding FGF2, the “% of BrdU positive neonatal cardiomyoctes” value in data set [1] is given as 22.2 ± 1.8%.

As for IL-1β, the “% of BrdU positive neonatal cardiomyoctes” value in data set [1] stood at 41.3 ± 3.2%.

TGFβ1: the “% of BrdU positive neonatal cardiomyoctes” value in data set [1] was found to be 17.4 ± 2.2%.

B1: FGF6 (protein, UniProt P10767 38-208, looked up)
Fibroblast growth factor 6: SPAGTRANNTLLDSRGWGTLLSRSRAGLAGEIAGVNWESGYLVGIKRQRRLYCNVGIGFHLQVLPDGRISGTHEENPYSLLEISTVERGVVSLFGVRSALFVAMNSKGRLYATPSFQEECKFRETLLPNNYNAYESDLYQGTYIALSKYGRVKRGSKVSPIMTVTHFLPRI
For the molecule B1, the “% of BrdU positive neonatal cardiomyoctes” value in data set [1] came to 47.3 ± 3.3%.

B2: FGF4 (protein, UniProt P08620 31-206, looked up)
Fibroblast growth factor 4: APTAPNGTLEAELERRWESLVALSLARLPVAAQPKEAAVQSGAGDYLLGIKRLRRLYCNVGIGFHLQALPDGRIGGAHADTRDSLLELSPVERGVVSIFGVASRFFVAMSSKGKLYGSPFFTDECTFKEILLPNNYNAYESYKYPGMFIALSKNGKTKKGNRVSPTMKVTHFLPRL
Turning to B2, in data set [1], the “% of BrdU positive neonatal cardiomyoctes” value stood at 46.5 ± 3.9%.

B3: FGF17 (protein, UniProt O60258 23-216, looked up)
Fibroblast growth factor 17: TQGENHPSPNFNQYVRDQGAMTDQLSRRQIREYQLYSRTSGKHVQVTGRRISATAEDGNKFAKLIVETDTFGSRVRIKGAESEKYICMNKRGKLIGKPSGKSKDCVFTEIVLENNYTAFQNARHEGWFMAFTRQGRPRQASRSRQNQREAHFIKRLYQGQLPFPNHAEKQKQFEFVGSAPTRRTKRTRRPQPLT
As for B3, in data set [1], the “% of BrdU positive neonatal cardiomyoctes” value is given as 31.1 ± 1.7%.

B4: CT-1 (protein, UniProt Q16619 1-201, looked up)
Cardiotrophin-1: MSRREGSLEDPQTDSSVSLLPHLEAKIRQTHSLAHLLTKYAEQLLQEYVQLQGDPFGLPSFSPPRLPVAGLSAPAPSHAGLPVHERLRLDAAALAALPPLLDAVCRRQAELNPRAPRLLRRLEDAARQARALGAAVEALLAALGAANRGPRAEPPAATASAASATGVFPAKVLGLRVCGLYREWLSRTEGDLGQLLPGGSA
Turning to B4, the “% of BrdU positive neonatal cardiomyoctes” value in data set [1] amounted to 11.2 ± 1.1%.
